In ChEMBL document CHEMBL4304811, “Development of a Water-Soluble Indolylmaleimide Derivative IM-93 Showing Dual Inhibition of Ferroptosis and NETosis” (ACS Med Chem Lett, 2019):
Activity calls are given as the source filed them. No cut-off for these calls is given here.

Key:
[1] = target: RAC-alpha serine/threonine-protein kinase (Homo sapiens) (UniProt P31749); assay: Binding affinity to wild-type human partial length AKT1 expressed in bacterial expression system assessed as residual binding level at 10 uM by Kinomescan method relative to control
[2] = target: Cyclin-dependent kinase-like 1 (Homo sapiens) (UniProt Q00532); assay: Binding affinity to wild-type human full length CDKL1 (M1 to I358 residues) expressed in mammalian expression system assessed as residual binding level at 10 uM by Kinomescan method relative to control
[3] = target: Citron Rho-interacting kinase (Homo sapiens) (UniProt O14578); assay: Binding affinity to wild-type human partial length CIT (M68 to E432 residues) expressed in bacterial expression system assessed as residual binding level at 10 uM by Kinomescan method relative to control
[4] = target: Casein kinase I isoform epsilon (Homo sapiens) (UniProt P49674); assay: Binding affinity to wild-type human full length CSNK1E (M1 to K416 residues) expressed in bacterial expression system assessed as residual binding level at 10 uM by Kinomescan method relative to control
[5] = system: Epidermal growth factor receptor (Homo sapiens), P00533 [UNDEFINED MUTATION]; assay: Binding affinity to human partial length EGFR E746-A750del mutant expressed in bacterial expression system assessed as residual binding level at 10 uM by Kinomescan method relative to control
[6] = target: Fibroblast growth factor receptor 2 (Homo sapiens) (UniProt P21802); assay: Binding affinity to wild-type human partial length FGFR2 (D457 to E769 residues) expressed in bacterial expression system assessed as residual binding level at 10 uM by Kinomescan method relative to control
[7] = target: Insulin receptor-related protein (Homo sapiens) (UniProt P14616); assay: Binding affinity to wild-type human partial length INSRR (R950 to E1278 residues) expressed in bacterial expression system assessed as residual binding level at 10 uM by Kinomescan method relative to control
[8] = target: Interleukin-1 receptor-associated kinase 4 (Homo sapiens) (UniProt Q9NWZ3); assay: Binding affinity to wild-type human partial length IRAK4 (M1 to S460 residues) expressed in mammalian expression system assessed as residual binding level at 10 uM by Kinomescan method relative to control
[9] = system: Mast/stem cell growth factor receptor Kit (Homo sapiens), P10721 [UNDEFINED MUTATION]; assay: Binding affinity to human partial length KIT V559D/V654 double mutant (Y545 to D952 residues) expressed in bacterial expression system assessed as residual binding level at 10 uM by Kinomescan method relative to control
[10] = target: Mitogen-activated protein kinase kinase kinase 1 (Homo sapiens) (UniProt Q13233); assay: Binding affinity to wild-type human partial length MAP3K1 (L1202 to W1512 residues) expressed in mammalian expression system assessed as residual binding level at 10 uM by Kinomescan method relative to control
[11] = target: Misshapen-like kinase 1 (Homo sapiens) (UniProt Q8N4C8); assay: Binding affinity to wild-type human partial length MINK (M1 to K312 residues) expressed in mammalian expression system assessed as residual binding level at 10 uM by Kinomescan method relative to control
[12] = target: Macrophage-stimulating protein receptor (Homo sapiens) (UniProt Q04912); assay: Binding affinity to wild-type human partial length MST1R (I1057 to L1363 residues) expressed in bacterial expression system assessed as residual binding level at 10 uM by Kinomescan method relative to control
[13] = target: Muscle, skeletal receptor tyrosine-protein kinase (Homo sapiens) (UniProt O15146); assay: Binding affinity to wild-type human partial length MUSK (M553 to V869 residues) expressed in bacterial expression system assessed as residual binding level at 10 uM by Kinomescan method relative to control
[14] = target: 3-phosphoinositide-dependent protein kinase 1 (Homo sapiens) (UniProt O15530); assay: Binding affinity to wild-type human full length PDPK1 (M1 to Q556 residues) expressed in bacterial expression system assessed as residual binding level at 10 uM by Kinomescan method relative to control
[15] = target: Serine/threonine-protein kinase RIO3 (Homo sapiens) (UniProt O14730); assay: Binding affinity to wild-type human full length RIOK3 (M1 to E519 residues) expressed in bacterial expression system assessed as residual binding level at 10 uM by Kinomescan method relative to control
[16] = target: Ribosomal protein S6 kinase alpha-1 (Homo sapiens) (UniProt Q15418); assay: Binding affinity to wild-type human partial length C- terminal RSK1 kinase domain 2 (P360 to L681 residues) expressed in bacterial expression system assessed as residual binding level at 10 uM by Kinomescan method relative to control
[17] = target: Serine/threonine-protein kinase SBK1 (Homo sapiens) (UniProt Q52WX2); assay: Binding affinity to wild-type human partial length SBK1 (P23 to P348 residues) expressed in mammalian expression system assessed as residual binding level at 10 uM by Kinomescan method relative to control
[18] = target: SRSF protein kinase 3 (Homo sapiens) (UniProt Q9UPE1); assay: Binding affinity to wild-type human partial length SRPK3 (P41 to P567 residues) expressed in bacterial expression system assessed as residual binding level at 10 uM by Kinomescan method relative to control
[19] = target: Tyrosine-protein kinase SYK (Homo sapiens) (UniProt P43405); assay: Binding affinity to wild-type human partial length SYK (D354 to N635 residues) expressed in bacterial expression system assessed as residual binding level at 10 uM by Kinomescan method relative to control
[20] = target: Serine/threonine-protein kinase TAO1 (Homo sapiens) (UniProt Q7L7X3); assay: Binding affinity to wild-type human partial length TAOK1 (M1 to A320 residues) expressed in mammalian expression system assessed as residual binding level at 10 uM by Kinomescan method relative to control
[21] = target: Serine/threonine-protein kinase tousled-like 1 (Homo sapiens) (UniProt Q9UKI8); assay: Binding affinity to wild-type human partial length TLK1 (K447 to A754 residues) expressed in bacterial expression system assessed as residual binding level at 10 uM by Kinomescan method relative to control
[22] = target: Activated CDC42 kinase 1 (Homo sapiens) (UniProt Q07912); assay: Binding affinity to wild-type human partial length TNK2 (S159 to D474 residues) expressed in bacterial expression system assessed as residual binding level at 10 uM by Kinomescan method relative to control
[23] = target: High affinity nerve growth factor receptor (Homo sapiens) (UniProt P04629); assay: Binding affinity to wild-type human partial length TRKA (G475 to G790 residues) expressed in mammalian expression system assessed as residual binding level at 10 uM by Kinomescan method relative to control
[24] = target: Serine/threonine-protein kinase WNK1 (Homo sapiens) (UniProt Q9H4A3); assay: Binding affinity to wild-type human partial length WNK1 (Q194 to A490 residues) expressed in mammalian expression system assessed as residual binding level at 10 uM by Kinomescan method relative to control
THP-1 = assay: Inhibition of Staphylococcus aureus-induced pyroptosis in human THP1 cells at 10 uM preincubated for 1 hr followed by bacterial infection and measured after 2 hrs by INT dye based LDH assay; type: functional, cell-based

Chain of Muscle, skeletal receptor tyrosine-protein kinase (Homo sapiens) (O15146 whole entry, the tested form may be a part): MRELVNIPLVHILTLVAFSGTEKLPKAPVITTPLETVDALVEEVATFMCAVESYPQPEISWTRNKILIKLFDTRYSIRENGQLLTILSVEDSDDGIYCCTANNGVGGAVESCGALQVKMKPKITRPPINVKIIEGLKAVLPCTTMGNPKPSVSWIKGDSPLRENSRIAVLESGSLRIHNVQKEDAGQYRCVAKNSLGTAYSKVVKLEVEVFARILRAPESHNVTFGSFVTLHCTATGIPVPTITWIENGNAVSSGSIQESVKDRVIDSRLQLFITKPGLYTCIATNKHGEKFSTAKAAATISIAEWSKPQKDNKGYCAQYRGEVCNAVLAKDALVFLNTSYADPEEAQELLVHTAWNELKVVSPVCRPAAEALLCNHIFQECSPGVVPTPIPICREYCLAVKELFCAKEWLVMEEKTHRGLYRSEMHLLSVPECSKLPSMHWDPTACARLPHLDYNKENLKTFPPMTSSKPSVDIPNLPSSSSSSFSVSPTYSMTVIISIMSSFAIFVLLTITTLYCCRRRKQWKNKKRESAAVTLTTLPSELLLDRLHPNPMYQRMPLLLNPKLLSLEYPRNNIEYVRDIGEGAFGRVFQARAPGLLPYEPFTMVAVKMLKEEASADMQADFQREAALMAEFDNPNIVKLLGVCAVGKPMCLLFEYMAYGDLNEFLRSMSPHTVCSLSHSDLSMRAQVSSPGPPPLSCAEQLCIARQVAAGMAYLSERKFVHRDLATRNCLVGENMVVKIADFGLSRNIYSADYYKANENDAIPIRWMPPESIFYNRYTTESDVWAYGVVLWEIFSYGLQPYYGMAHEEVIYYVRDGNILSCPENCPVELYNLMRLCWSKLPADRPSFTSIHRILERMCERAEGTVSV
Chain of Ribosomal protein S6 kinase alpha-1 (Homo sapiens) (Q15418 whole entry, the tested form may be a part): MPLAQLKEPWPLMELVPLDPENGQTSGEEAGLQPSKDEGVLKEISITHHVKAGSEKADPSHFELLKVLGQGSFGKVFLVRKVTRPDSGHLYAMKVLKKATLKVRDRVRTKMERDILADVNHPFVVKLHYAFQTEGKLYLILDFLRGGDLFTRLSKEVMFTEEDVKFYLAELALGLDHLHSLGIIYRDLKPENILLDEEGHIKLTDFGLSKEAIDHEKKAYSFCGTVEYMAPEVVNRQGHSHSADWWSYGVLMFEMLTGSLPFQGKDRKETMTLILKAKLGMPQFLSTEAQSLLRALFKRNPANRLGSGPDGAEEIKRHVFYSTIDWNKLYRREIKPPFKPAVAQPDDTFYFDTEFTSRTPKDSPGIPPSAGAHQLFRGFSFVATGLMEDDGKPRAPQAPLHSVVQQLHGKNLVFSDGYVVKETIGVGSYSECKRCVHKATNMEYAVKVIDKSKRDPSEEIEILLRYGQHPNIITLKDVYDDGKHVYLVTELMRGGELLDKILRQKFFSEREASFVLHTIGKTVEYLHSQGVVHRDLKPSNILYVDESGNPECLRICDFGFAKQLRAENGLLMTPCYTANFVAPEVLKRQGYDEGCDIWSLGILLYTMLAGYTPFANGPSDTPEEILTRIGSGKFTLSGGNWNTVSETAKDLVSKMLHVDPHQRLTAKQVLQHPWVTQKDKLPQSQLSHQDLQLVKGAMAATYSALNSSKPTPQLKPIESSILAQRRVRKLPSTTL
Chain of Activated CDC42 kinase 1 (Homo sapiens) (Q07912 whole entry, looked up, the tested form may be a part): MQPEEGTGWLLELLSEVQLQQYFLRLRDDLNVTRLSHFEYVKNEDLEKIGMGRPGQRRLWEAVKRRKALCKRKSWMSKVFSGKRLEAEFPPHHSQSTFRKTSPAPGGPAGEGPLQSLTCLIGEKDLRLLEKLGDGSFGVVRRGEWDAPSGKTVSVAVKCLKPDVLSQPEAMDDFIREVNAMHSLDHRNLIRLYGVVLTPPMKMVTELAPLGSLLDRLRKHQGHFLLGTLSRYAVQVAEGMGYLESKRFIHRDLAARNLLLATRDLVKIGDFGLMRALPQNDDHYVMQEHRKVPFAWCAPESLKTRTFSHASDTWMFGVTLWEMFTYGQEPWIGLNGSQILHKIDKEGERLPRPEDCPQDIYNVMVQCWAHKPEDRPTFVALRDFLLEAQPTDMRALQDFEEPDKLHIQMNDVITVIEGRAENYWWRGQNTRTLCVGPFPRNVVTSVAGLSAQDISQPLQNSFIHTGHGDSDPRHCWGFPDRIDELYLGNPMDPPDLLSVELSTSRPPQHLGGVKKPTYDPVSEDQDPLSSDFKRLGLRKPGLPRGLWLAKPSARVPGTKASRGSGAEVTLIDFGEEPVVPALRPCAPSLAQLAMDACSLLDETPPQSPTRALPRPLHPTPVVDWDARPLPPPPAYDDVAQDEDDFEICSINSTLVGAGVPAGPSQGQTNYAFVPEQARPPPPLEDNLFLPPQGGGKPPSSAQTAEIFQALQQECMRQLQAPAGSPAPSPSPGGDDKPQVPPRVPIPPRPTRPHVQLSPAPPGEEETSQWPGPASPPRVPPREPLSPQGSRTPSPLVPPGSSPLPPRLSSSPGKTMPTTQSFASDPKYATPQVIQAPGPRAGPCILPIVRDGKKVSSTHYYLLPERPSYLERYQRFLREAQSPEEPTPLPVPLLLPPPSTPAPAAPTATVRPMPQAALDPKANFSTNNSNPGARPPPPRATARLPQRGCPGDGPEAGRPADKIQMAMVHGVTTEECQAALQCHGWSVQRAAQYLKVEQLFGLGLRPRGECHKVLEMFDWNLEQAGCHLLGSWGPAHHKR
Chain of Mast/stem cell growth factor receptor Kit (Homo sapiens), P10721 [UNDEFINED MUTATION] (P10721 whole entry, looked up, stated change not applied, the tested form may be a part): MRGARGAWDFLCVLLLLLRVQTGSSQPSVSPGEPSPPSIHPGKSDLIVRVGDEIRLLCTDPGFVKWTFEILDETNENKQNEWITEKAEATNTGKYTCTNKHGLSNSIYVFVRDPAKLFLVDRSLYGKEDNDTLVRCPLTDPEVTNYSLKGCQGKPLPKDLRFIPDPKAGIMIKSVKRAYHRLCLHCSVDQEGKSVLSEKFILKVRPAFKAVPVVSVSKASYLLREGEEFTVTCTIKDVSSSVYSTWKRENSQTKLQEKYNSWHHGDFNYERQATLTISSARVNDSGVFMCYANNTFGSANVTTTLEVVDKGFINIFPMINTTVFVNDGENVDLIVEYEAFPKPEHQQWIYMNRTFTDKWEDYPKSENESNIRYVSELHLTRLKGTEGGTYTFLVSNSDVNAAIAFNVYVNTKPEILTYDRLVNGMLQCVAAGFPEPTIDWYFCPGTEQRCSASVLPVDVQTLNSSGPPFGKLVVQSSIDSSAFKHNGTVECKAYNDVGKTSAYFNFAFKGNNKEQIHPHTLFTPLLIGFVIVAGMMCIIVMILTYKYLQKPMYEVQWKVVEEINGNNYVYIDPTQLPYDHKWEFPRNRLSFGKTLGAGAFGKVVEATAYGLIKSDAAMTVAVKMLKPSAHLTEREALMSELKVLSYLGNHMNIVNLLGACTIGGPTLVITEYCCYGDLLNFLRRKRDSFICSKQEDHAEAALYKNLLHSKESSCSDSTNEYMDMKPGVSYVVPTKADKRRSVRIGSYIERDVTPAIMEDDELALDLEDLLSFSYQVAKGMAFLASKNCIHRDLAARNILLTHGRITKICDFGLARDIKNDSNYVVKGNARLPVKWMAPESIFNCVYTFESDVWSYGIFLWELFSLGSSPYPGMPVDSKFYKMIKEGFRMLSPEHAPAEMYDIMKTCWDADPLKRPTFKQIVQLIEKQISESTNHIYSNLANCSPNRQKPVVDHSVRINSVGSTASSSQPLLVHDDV
Chain of RAC-alpha serine/threonine-protein kinase (Homo sapiens) (P31749 whole entry, the tested form may be a part): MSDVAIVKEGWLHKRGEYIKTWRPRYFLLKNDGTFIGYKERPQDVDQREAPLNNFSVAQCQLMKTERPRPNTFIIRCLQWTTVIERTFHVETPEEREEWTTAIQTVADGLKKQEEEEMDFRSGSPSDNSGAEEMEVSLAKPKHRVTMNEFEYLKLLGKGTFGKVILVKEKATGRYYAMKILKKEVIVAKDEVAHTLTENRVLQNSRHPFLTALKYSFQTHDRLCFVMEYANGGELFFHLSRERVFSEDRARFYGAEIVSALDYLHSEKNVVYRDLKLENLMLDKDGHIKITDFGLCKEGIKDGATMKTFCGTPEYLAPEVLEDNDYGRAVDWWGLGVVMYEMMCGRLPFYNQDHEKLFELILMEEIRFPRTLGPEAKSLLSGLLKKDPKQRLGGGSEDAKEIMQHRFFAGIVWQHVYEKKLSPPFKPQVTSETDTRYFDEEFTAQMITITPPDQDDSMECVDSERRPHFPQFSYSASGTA
Chain of SRSF protein kinase 3 (Homo sapiens) (Q9UPE1 whole entry, the tested form may be a part): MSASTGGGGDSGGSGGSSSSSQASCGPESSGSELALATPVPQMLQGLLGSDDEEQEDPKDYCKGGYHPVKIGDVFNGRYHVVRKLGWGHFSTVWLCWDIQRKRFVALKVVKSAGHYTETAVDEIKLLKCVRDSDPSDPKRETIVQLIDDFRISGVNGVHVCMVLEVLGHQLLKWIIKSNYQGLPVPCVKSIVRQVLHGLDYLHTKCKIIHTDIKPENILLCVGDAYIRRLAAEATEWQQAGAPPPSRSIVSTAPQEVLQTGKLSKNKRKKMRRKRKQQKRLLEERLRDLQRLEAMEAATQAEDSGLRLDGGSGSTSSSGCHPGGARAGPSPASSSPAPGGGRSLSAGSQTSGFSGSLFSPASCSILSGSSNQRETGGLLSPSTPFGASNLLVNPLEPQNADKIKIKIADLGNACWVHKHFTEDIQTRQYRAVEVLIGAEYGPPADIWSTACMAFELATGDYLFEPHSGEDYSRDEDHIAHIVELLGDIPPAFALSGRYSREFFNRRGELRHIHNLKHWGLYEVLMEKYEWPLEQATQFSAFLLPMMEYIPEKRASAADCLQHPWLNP
Chain of Cyclin-dependent kinase-like 1 (Homo sapiens) (Q00532 whole entry, the tested form may be a part): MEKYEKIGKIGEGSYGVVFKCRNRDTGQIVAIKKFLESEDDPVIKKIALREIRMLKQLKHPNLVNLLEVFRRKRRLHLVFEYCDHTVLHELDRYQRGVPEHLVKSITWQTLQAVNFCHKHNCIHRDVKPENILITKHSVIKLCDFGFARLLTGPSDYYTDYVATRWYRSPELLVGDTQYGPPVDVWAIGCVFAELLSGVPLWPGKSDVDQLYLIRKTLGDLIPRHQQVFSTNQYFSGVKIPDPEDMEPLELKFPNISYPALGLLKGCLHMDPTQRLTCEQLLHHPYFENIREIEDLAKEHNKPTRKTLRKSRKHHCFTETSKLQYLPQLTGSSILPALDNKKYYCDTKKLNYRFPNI

**Q.** For `CC(C)N1C(=O)C(NCCCN(C)C)=C(c2cn(C)c3ccccc23)C1=O.Cl`, which Activity [1] is on record?
**A.** 95%

**Q.** What about the Activity [2] of the same compound?
**A.** 73%

**Q.** And the Activity [3]?
**A.** 84%

**Q.** What about the Activity [4] of the same compound?
**A.** 89%

**Q.** And the Activity [5]?
**A.** 100%

**Q.** And the Activity [6]?
**A.** 100%

**Q.** And the Activity [7]?
**A.** 95%

**Q.** What about the Activity [8] of the same compound?
**A.** 74%

**Q.** What about the Activity [9] of the same compound?
**A.** 95%

**Q.** What about the Activity [10] of the same compound?
**A.** 68%

**Q.** And the Activity [11]?
**A.** 94%

**Q.** What about the Activity [12] of the same compound?
**A.** 100%

**Q.** And the Activity [13]?
**A.** 100%

**Q.** And the Activity [14]?
**A.** 89%

**Q.** And the Activity [15]?
**A.** 100%

**Q.** And the Activity [16]?
**A.** 100%

**Q.** And the Activity [17]?
**A.** 100%

**Q.** And the Activity [18]?
**A.** 100%

**Q.** What about the Activity [19] of the same compound?
**A.** 82%

**Q.** And the Activity [20]?
**A.** 78%

**Q.** And the Activity [21]?
**A.** 100%

**Q.** What about the Activity [22] of the same compound?
**A.** 100%

**Q.** What about the Activity [23] of the same compound?
**A.** 100%

**Q.** And the Activity [24]?
**A.** 68%

**Q.** What about the inhibition (THP-1) of the same compound?
**A.** inactive
